Source: US7943159B1, “Female sex pheromone of the dogwood borer (DWB), Synanthedon scitula, and attraction inhibitor (antagonist)” (The United States of America as represented by the …, priority 2006, dated 2011)
“Also recorded” adds a separate entry of the source.

Tests used:
[1] = test system: adult male DWB antenna; assay: Coupled GC-EAD (electroantennographic detection) of synthetic octadecadienyl acetates; set-up: species or system Synanthedon scitula; conditions: for EAD activity in 10 ng of loading: 10 ng loading, male DWB antenna, footnote: relative to E,Z-2,13-octadecadienyl acetate; for EAD activity / electroantennogram response: male DWB antennae, synthetic standards
Source text: Identification of peaks: 1, ZZ 3,13-ODDA; 2, EZ 2,13-ODDA; and 3, ZE 3,13-ODDA. Electrophysiological. Recordings and Mass Spectrometry: The coupled gas chromatographic-electroantennographic detection (GC-EAD) system used was as previously described (Zhang, A., and S. Polavarapu, J. Chem. Ecol., 29: 2153-2164 (2003); Zhang, A., and S. Polavarapu, J. Chem. Ecol., 30: 1531-1545 (2004); Zhang, A., et al., J. Chem. Ecol., 23: 231-245 (1997)). A Hewlett Packard (HP) 6890 gas chromatograph equipped with a 60 m×0.25-mm i.d., 0.25-mm film-thickness DB-[…] capillary column (J&W Scientific Inc., Folsom, Calif., 120° C. for 2 min, then programmed to 250° C. at 10° C./min and held for 10 min) or a 60 m×0.25-mm i.d., 0.25-mm film-thickness DB-5 capillary column (J&W Scientific Inc., 100° C. for 2 min, then programmed to 250° C. at 15° C./min and held for 10 min) in the splitless mode with hydrogen as carrier (1.4 ml/min) was used for GC-EAD analysis. Electronic impact (EI) gas chromatography-mass spectrometry (GC-MS) was conducted on a Hewlett-Packard 6890 GC coupled to a HP 5973 Mass Selective Detector using an identical DB-[…] capillary column (120° C. for 2 min, then programmed to 230° C. at 15° C./min and held for 25 min for regular analysis, but with helium as carrier gas. A 70 eV electron beam was employed for sample ionization.

[2] = test system: male DWB (Synanthedon scitula); assay: Field trapping tests with lure-baited sticky traps in apple orchards; assay type: in vivo
Protocol: Field Trapping Tests: Red natural rubber septa (5 mm, Wheaton, N.J.) loaded with the desired rates of Z,Z-3,13-ODDA and the blends in […] of hexane solution were used for field deployment. The same amount of solvent (hexane) was loaded on the septum for the blank control. After loading, the solvent was allowed to evaporate in a fume hood for 30 min. Lures were then wrapped in aluminum foil, stored in 20 ml plastic vials, and shipped by express carrier on the same day. Upon arrival, the lures were kept in a freezer at −10° C. until deployed. All field tests were conducted in commercial apple fields in WV, VA, and NC using Pherocon 1C or Delta sticky traps (Trécé, Salinas, Calif.). Traps were placed in trees at ˜1.2 m above the ground (Riedi, Fla., et al., Cana. Entomol., 117: 1367-1377 (1985)). At each location, experimental lures were randomized within each of three to five rows (depending on the number of replicates per test) and separated by at least one buffer row, and traps were spaced at a minimum of ˜25 m intervals within a row. Traps were rotated among positions within each row at weekly intervals for the duration of each test. The number of dogwood borer, peachtree borer, lilac borer, and other male Sesiidae moths captured were recorded weekly. In the first comparison trial, the following lures were deployed: the single component (100% Z,Z-3,13 ODDA); the binary blend (Z,Z-3,13-ODDA:E,Z-2,13-ODDA=94:6); a second two-component blend (Z,Z-3,13-ODDA:Z,E-3,13-ODDA=94:6, based on the molar amount of the Z,Z-3,13-octadecadienyl acetate in the composition); the trinary blend (Z,Z-3,13-ODDA:E,Z-2,13-ODDA:Z,E-3,13-ODDA=88:6:6); and control. Next, to evaluate the attractive effect of addition of third component, 0.5, 1, 3, or 10% based on the molar amount of the Z,Z-3,13-octadecadienyl acetate of Z,E-3,13-ODDA were added into the binary blend individually. Similarly, 0.5, 1, 3, or 10% of E,Z-2,13-ODDA were individually added into a blend consisted of Z,Z-3,13-ODDA:Z, E-3,13-ODDA (94:6) to evaluate the effect of E,Z-2,13-ODDA. In another comparison, 0.5, 1, 2, or 3% E,Z-3,13-ODDA was added to the trinary blend. Dose response tests of the trinary and binary blends were deployed in each location, with doses consisting of 10-μg, 100-μg, 300-μg, 1-mg, and 10-mg (trinary blend); and 10-μg, 100-μg, 300-μg, 500-μg, and 1-mg (binary blend), respectively. Caged live virgin females (2-4 days old and 1 female per cage) were deployed in traps to provide a natural source of pheromone for comparison with traps baited with the binary and trinary blends. In a final comparison to determine over what distance DWB can detect the trinary blend, we compared captures in traps baited with the trinary blend deployed within an infested apple orchard, and 50 and […] outside the orchard within a large wood lot habitat.
Statistics: The data on control traps were omitted in the analysis because of zero trap catches. Unless otherwise specified, data on trap catches from each test were logarithm transformed (log χ+1) to normalize the variance before analysis. Means were compared by one-way analysis of variance (ANOVA) followed by Ryan-Einot-Gabriel-Welsch Range test (SPSS 10.0 for Windows, George and Mallery, 2002) for significance at α=0.05.

[3] = test system: dogwood borer (DWB); assay: Species-specificity of lures: share of dogwood borer in captures; assay type: in vivo, Synanthedon scitula; conditions: across all sites; FIG. 10
Protocol: Field Trapping Tests: Red natural rubber septa (5 mm, Wheaton, N.J.) loaded with the desired rates of Z,Z-3,13-ODDA and the blends in […] of hexane solution were used for field deployment. The same amount of solvent (hexane) was loaded on the septum for the blank control. After loading, the solvent was allowed to evaporate in a fume hood for 30 min. Lures were then wrapped in aluminum foil, stored in 20 ml plastic vials, and shipped by express carrier on the same day. Upon arrival, the lures were kept in a freezer at −10° C. until deployed. All field tests were conducted in commercial apple fields in WV, VA, and NC using Pherocon 1C or Delta sticky traps (Trécé, Salinas, Calif.). Traps were placed in trees at ˜1.2 m above the ground (Riedi, Fla., et al., Cana. Entomol., 117: 1367-1377 (1985)). At each location, experimental lures were randomized within each of three to five rows (depending on the number of replicates per test) and separated by at least one buffer row, and traps were spaced at a minimum of ˜25 m intervals within a row. Traps were rotated among positions within each row at weekly intervals for the duration of each test. The number of dogwood borer, peachtree borer, lilac borer, and other male Sesiidae moths captured were recorded weekly. […]

Row | SMILES | EAD activity in 10 ng of loading [1] | EAD activity / electroantennogram response [1] | other results
1 | CCCC/C=C/CCCCCCCCC/C=C/COC(C)=O [(E,E)-2,13-Octadecadienyl acetate, reference compound] | 0.012 (±0.21% SD, n = 3) mV |  | 
2 | CCCC/C=C/CCCCCCCC/C=C/CCOC(C)=O [(E,E)-3,13-Octadecadienyl acetate, E,E-3,13-octadecadienyl acetate, reference compound] | 0.12 (±3.5% SD, n = 3) mV |  | 
3 | CCCC/C=C\CCCCCCCCC/C=C/COC(C)=O [(E,Z)-2,13-Octadecadienyl acetate, E,Z-2,13-octadecadienyl acetate] | 0.13 (±1.2% SD, n = 3) mV | confirmed by synthetic standards | effect on attraction of adding the compound to Z,Z-3,13-ODDA:Z,E-3,13-ODDA (94:6) blend ([2]; 0.5 to 10% added, FIG. 4): significantly increased; amount added to 94:6 (Z,Z-3,13-ODDA:Z,E-3,13-ODDA) blend at which captures increased significantly ([2]; all locations, FIG. 4): ≤ 1%
4 | CCCC/C=C\CCCCCCCC/C=C/CCOC(C)=O [(E,Z)-3,13-Octadecadienyl acetate, E,Z-3,13-octadecadienyl acetate] | 0.30 (±8.7% SD, n = 3) mV | just as strong an electroantennogram response as Z,Z-3,13-ODDA | effect on trap captures of DWB (attraction antagonism) ([2]; added to trinary blend, FIG. 5, listed as E,Z-3,13-ODDA): reduced trap captures of DWB significantly; also recorded: inhibit (antagonize) DWB male response and movement; amount added to trinary blend that significantly inhibited (reduced) trap captures ([2]; all locations, FIG. 5, listed as E,Z-3,13-ODDA): ≤ 0.5%; amount added to trinary blend that significantly inhibited (reduced) trap captures ([2]; all locations, FIG. 5, listed as E,Z-3 μl 3-ODDA): 0.5-1%
5 | CCCC/C=C/CCCCCCCCC/C=C\COC(C)=O [(Z,E)-2,13-Octadecadienyl acetate, reference compound] | 0.030 (±0.10% SD, n = 3) mV |  | 
6 | CCCC/C=C/CCCCCCCC/C=C\CCOC(C)=O [(Z,E)-3,13-Octadecadienyl acetate, Z,E-3,13-octadecadienyl acetate] | 0.25 (±1.0% SD, n = 3) mV |  | effect on attraction of adding the compound to the binary blend ([2]; 0.5 to 10% added to binary blend (94:6), FIG. 3, listed as Z,E-3,13-ODDA): did not cause a significant increase in attraction; also recorded: did not observe a similar response
7 | CCCC/C=C\CCCCCCCCC/C=C\COC(C)=O [(Z,Z)-2,13-Octadecadienyl acetate, reference compound] | 0.029 (±0.79% SD, n = 3) mV |  | 
8 | CCCC/C=C\CCCCCCCC/C=C\CCOC(C)=O [(Z,Z)-3,13-Octadecadienyl acetate, Z,Z-3,13-octadecadienyl acetate] | 0.30 (±9.5% SD, n = 3) mV | confirmed by synthetic standards | attraction of male DWB (trap captures), blend comparison ([2]; septa containing 1-mg, NC, VA, WV, FIG. 2, listed as Z,Z-3,13-ODDA): surprisingly attractive; also recorded: reliably attract male DWB; percentage of captures that were male dogwood borers [3]: 92-99.6%
